How the values were obtained:
[1] = tested on: 22 month old Wistar rats; assay: Intraperitoneal glucose tolerance test after 48 hrs subcutaneous GLP-1 infusion; type: in vivo, rat; settings: […] for 48 hrs
Procedure: (§1) The rats were implanted with an Alzet micro-osmotic pump (Alza Corp., Palo Alto, Calif.) in the interscapular region for 48 hrs. […] Control animals received normal saline in their pumps and received their infusion for the same length of time.
Blood samples were obtained at 15, 30, 45, 60, and 90 min in order to estimate glucose and insulin levels. Blood (200 μl) was drawn into heparinized tubes containing EDTA for glucose and insulin determination.
Assays. Plasma glucose was measured by the glucose oxidase method (Egan et al., 1991). […] The amount of cellular proteins was measured using the Bradford method (Bio-Rad Richmond, Calif.) using bovine γ-globulin as standard.

[2] = tested on: AR42J cells; assay: Protein tyrosine phosphorylation in AR42J cells; type: cell-based, rat; settings: 5 min treatment
Procedure: Tyrosine Phosphorylation Studies. […] Then the medium was removed and fresh KRBB was added, followed by placing the cell on a 37° C. hot plate for 5 min. After addition of various reagents (see FIG. 24) for 5 min the reaction was terminated by submersion of the dishes in liquid nitrogen. The frozen cells were scraped and lysed in RIPA buffer. […] The blots were developed using the ECL chemiluminescence detection system (Amersham).

[3] = tested on: glucokinase mRNA; assay: Slot-blot quantitation of glucokinase mRNA in pancreata and islets; type: in vivo, rat; settings: young (P<0.05), much more so in old animals (P<0.001)
Description: as §1
After an overnight fast, animals were sacrificed, pancreata were removed and frozen in liquid nitrogen as quickly as possible. RNA was extracted by homogenization in guanidinium isothiocyanate, followed by ultracentrifugation on a 5.7 M cesium chloride cushion (Glisin et al., 1974; Chigwin et al., 1979). Poly-A RNA was then prepared from total RNA by affinity chromatography using oligo (dT) columns (Biolabs INC, Beverly, Mass.). RNA was quantified by spectrophotometric analysis at […]. Slot-blot analysis using poly-A RNA was used for quantitation of mRNA levels of glucokinase, which is the main glucose sensor of the beta cell (Matschinsky, 1990), the three hexokinases, GLUT2, the major glucose transporter of the beta cell (Mueckler, 1990), and insulin. Four micrograms of poly-A RNA were diluted in 50 μl TE buffer (Tris-HCL 10 mM, EDTA 1 mM, pH 7.4), 20 μl of 37% formaldehyde and 20 μl of 10× SSC. Samples were incubated at 60° C. for 15 min and then diluted with 1 ml of ice-cold 10× SSC (1×SCC=0.15 M NaCl+0.015 sodium citrate). […]

CC[C@H](C)[C@H](NC(=O)[C@H](Cc1ccccc1)NC(=O)[C@H](CCC(=O)O)NC(=O)[C@H](CCCCN)NC(=O)[C@H](C)NC(=O)[C@H](C)NC(=O)[C@H](CCC(N)=O)NC(=O)CNC(=O)[C@H](CCC(=O)O)NC(=O)[C@H](CC(C)C)NC(=O)[C@H](Cc1ccc(O)cc1)NC(=O)[C@H](CO)NC(=O)[C@H](CO)NC(=O)[C@@H](NC(=O)[C@H](CC(=O)O)NC(=O)[C@H](CO)NC(=O)[C@@H](NC(=O)[C@H](Cc1ccccc1)NC(=O)[C@@H](NC(=O)CNC(=O)[C@H](CCC(=O)O)NC(=O)[C@H](C)NC(=O)[C@@H](N)Cc1c[nH]cn1)[C@@H](C)O)[C@@H](C)O)C(C)C)C(=O)N[C@@H](C)C(=O)N[C@@H](Cc1c[nH]c2ccccc12)C(=O)N[C@@H](CC(C)C)C(=O)N[C@H](C(=O)N[C@@H](CCCCN)C(=O)NCC(=O)N[C@@H](CCCNC(=N)N)C(N)=O)C(C)C [GLP-1]
blood glucose during glucose tolerance test ([1]; 15 min after 1 g/kg ip glucose, control 11.61±0.23): 9.04 ± 0.92 mmol/L
blood glucose during glucose tolerance test ([1]; 30 min after 1 g/kg ip glucose, control 10.36±0.43): 8.61 ± 0.39 mmol/L
effect on protein tyrosine phosphorylation [2]: did not have any effect
glucokinase mRNA levels [3]: significantly increased

— patent US7056734B1, “Differentiation of non-insulin producing cells into insulin producing cells by GLP-1 or exendin-4 and uses thereof” (The United States of America as represented by the …, priority 1998, dated 2006)
